Results from patent publication US20020137929A1, “1 - (3-heterocyclylphenyl) isothiourea, -isourea, -guanidine and -amidine herbicidal agents” (Intellectual Property Department, BASF Aktiengesellschaft, priority 1998, published 2002).

Assays:
ECHCG (Barnyardgrass) = test: Postemergence herbicidal evaluation; format: in vivo, Echinochloa crus-galli; details: postemergence
Summary of the method: (§1)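 Herbicidal effect was judged by eye on a 0–9 scale covering stand, vigor, deformity, size and chlorosis, compared with controls, four to five weeks after seedlings about two weeks old were sprayed (40 psi, ~0.0156–0.500 kg/ha).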

ABUTH (Velvetleaf) = test: Preemergence herbicidal evaluation; format: in vivo, Abutilon theophrasti; details: rated 4-5 weeks after treatment
Summary of the method: (§2)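 Seeds were mixed with potting soil and planted on about one inch of soil, then sprayed with test compound in aqueous acetone at about 0.0156 to 0.500 kg per hectare. Plants grew under standard greenhouse care and were visually rated 0-9 against untreated controls 4-5 weeks post-treatment.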

[1] = system: IPOHE (Morningglory, Ivyleaf); test: Preemergence herbicidal evaluation; format: in vivo, Ipomoea hederacea; details: rated 4-5 weeks after treatment
Summary of the method: as §2

CASOB (Sicklepod) [2] = test: Postemergence herbicidal evaluation; format: in vivo, Cassia obtusifolia; details: postemergence
Summary of the method: as §1

MOOVA (Monochoria) = test: Preemergence weed control under flooded paddy conditions; format: in vivo, Monochoria vaginalis; details: rated 3-4 weeks after treatment
Summary of the method: (§3)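 Visual injury scored 0-9 against control three to four weeks post-treatment, greenhouse-grown. Application: acetone/water (50/50) solutions dosed directly into flood water (1.5-3 cm over silt loam, planted top 0.5 cm), roughly 0.0313 to 0.500 kg/ha active ingredient.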

CASOB (Sicklepod) [3] = test: Preemergence herbicidal evaluation; format: in vivo, Cassia obtusifolia; details: rated 4-5 weeks after treatment
Summary of the method: as §2

[4] = system: IPOHE (Morningglory, Ivyleaf); test: Postemergence herbicidal evaluation; format: in vivo, Ipomoea hederacea; details: postemergence
Summary of the method: as §1

[5] = system: SAGPY (Arrowhead (Pygmaea)); test: Preemergence weed control under flooded paddy conditions; format: in vivo, Sagittaria pygmaea; details: rated 3-4 weeks after treatment
Summary of the method: as §3

[6] = system: GLXMAW (Soybean, Williams); test: Postemergence herbicidal evaluation; format: in vivo, Glycine max, (L.) Merr. cv Williams; details: postemergence
Summary of the method: as §1

[7] = system: CHEAL (Lambsquarters, Common); test: Postemergence herbicidal evaluation; format: in vivo, Chenopodium album; details: postemergence
Summary of the method: as §1

[8] = system: CHEAL (Lambsquarters, Common); test: Preemergence herbicidal evaluation; format: in vivo, Chenopodium album; details: rated 4-5 weeks after treatment
Summary of the method: as §2

AMBEL (Ragweed, Common) [9] = test: Preemergence herbicidal evaluation; format: in vivo, Ambrosia artemisifolia; details: rated 4-5 weeks after treatment
Summary of the method: as §2

[10] = system: TRZAWR (Wheat, Winter, cv Riband); test: Postemergence herbicidal evaluation; format: in vivo, Triticum aestivum; details: postemergence
Summary of the method: as §1

AMBEL (Ragweed, Common) [11] = test: Postemergence herbicidal evaluation; format: in vivo, Ambrosia artemisifolia; details: postemergence
Summary of the method: as §1

[12] = system: GLXMAW (Soybean, Williams); test: Preemergence herbicidal evaluation; format: in vivo, Glycine max, (L.) Merr. cv Williams; details: rated 4-5 weeks after treatment
Summary of the method: as §2

ORYSAT (Rice, Tebonnet) = test: Preemergence herbicidal evaluation; format: in vivo, Oryza sativa, (L.) Tebonnet; details: rated 4-5 weeks after treatment
Summary of the method: as §2

CC(C)S(=O)(=O)NC(=O)CC1SC(=Nc2cc(-n3c(=O)cc(C(F)(F)F)n(C)c3=O)c(F)cc2Cl)N(C)C1=O (stereo not drawn) [Compound 119, 2-{{2-Chloro-5-[3,6-dihydro-3-methyl-2,6-dioxo-4-(trifluoromethyl)-1(2H)-pyrimidinyl]-4-fluorophenyl}imino}-N-(isopropylsulfonyl)-3-methyl-4-oxo-5-thiazolidineacetamide]
2.5: herbicidal effect rating, SAGPY ([5]; 0.0313 kg/ha) | Herbicidal rating TRZAWR ([10]; rate 0.0156 kg/ha)
1.0: Herbicidal rating ECHCG (ECHCG (Barnyardgrass); rate 0.0625 kg/ha) | Preemergence herbicidal rating GLXMAW ([12]; rate 0.1250 kg/ha)
4.5: herbicidal effect rating, SAGPY ([5]; 0.2500 kg/ha)
4.0: Preemergence herbicidal rating ABUTH (ABUTH (Velvetleaf); rate 0.0625 kg/ha) | Preemergence herbicidal rating AMBEL (AMBEL (Ragweed, Common) [9]; rate 0.1250 kg/ha) | Preemergence herbicidal rating AMBEL (AMBEL (Ragweed, Common) [9]; rate 0.2500 kg/ha)
8.0: herbicidal effect rating, MOOVA (MOOVA (Monochoria); 0.0625 kg/ha)
5.0: Herbicidal rating CASOB (CASOB (Sicklepod) [2]; rate 0.0313 kg/ha)
7.0: Herbicidal rating CASOB (CASOB (Sicklepod) [2]; rate 0.0625 kg/ha) | Herbicidal rating GLXMAW ([6]; rate 0.0156 kg/ha)
8.5: Herbicidal rating GLXMAW ([6]; rate 0.0313 kg/ha) | Herbicidal rating GLXMAW ([6]; rate 0.0625 kg/ha)
3.5: herbicidal effect rating, SAGPY ([5]; 0.1250 kg/ha) | Herbicidal rating TRZAWR ([10]; rate 0.0313 kg/ha) | Herbicidal rating TRZAWR ([10]; rate 0.0625 kg/ha)
3.0: Preemergence herbicidal rating ABUTH (ABUTH (Velvetleaf); rate 0.0313 kg/ha) | Herbicidal rating CASOB (CASOB (Sicklepod) [2]; rate 0.0156 kg/ha) | Preemergence herbicidal rating CASOB (CASOB (Sicklepod) [3]; rate 0.2500 kg/ha) | herbicidal effect rating, SAGPY ([5]; 0.0625 kg/ha)
7.5: herbicidal effect rating, MOOVA (MOOVA (Monochoria); 0.0313 kg/ha)
9.0: Preemergence herbicidal rating ABUTH (ABUTH (Velvetleaf); rate 0.1250 kg/ha) | Preemergence herbicidal rating ABUTH (ABUTH (Velvetleaf); rate 0.2500 kg/ha) | Preemergence herbicidal rating IPOHE ([1]; rate 0.1250 kg/ha) | Preemergence herbicidal rating IPOHE ([1]; rate 0.2500 kg/ha) | herbicidal effect rating, MOOVA (MOOVA (Monochoria); 0.1250 kg/ha) | herbicidal effect rating, MOOVA (MOOVA (Monochoria); 0.2500 kg/ha) | Herbicidal rating IPOHE ([4]; rate 0.0156 kg/ha) | Herbicidal rating IPOHE ([4]; rate 0.0313 kg/ha) | Herbicidal rating IPOHE ([4]; rate 0.0625 kg/ha) | Herbicidal rating CHEAL ([7]; rate 0.0156 kg/ha) | Herbicidal rating CHEAL ([7]; rate 0.0313 kg/ha) | Herbicidal rating CHEAL ([7]; rate 0.0625 kg/ha) | Preemergence herbicidal rating CHEAL ([8]; rate 0.0156 kg/ha) | Preemergence herbicidal rating CHEAL ([8]; rate 0.0313 kg/ha) | Preemergence herbicidal rating CHEAL ([8]; rate 0.0625 kg/ha) | Preemergence herbicidal rating CHEAL ([8]; rate 0.1250 kg/ha) | Preemergence herbicidal rating CHEAL ([8]; rate 0.2500 kg/ha) | Herbicidal rating AMBEL (AMBEL (Ragweed, Common) [11]; rate 0.0156 kg/ha) | Herbicidal rating AMBEL (AMBEL (Ragweed, Common) [11]; rate 0.0313 kg/ha) | Herbicidal rating AMBEL (AMBEL (Ragweed, Common) [11]; rate 0.0625 kg/ha)
2.0: Preemergence herbicidal rating GLXMAW ([12]; rate 0.2500 kg/ha)
0.0: Herbicidal rating ECHCG (ECHCG (Barnyardgrass); rate 0.0156 kg/ha) | Herbicidal rating ECHCG (ECHCG (Barnyardgrass); rate 0.0313 kg/ha) | Preemergence herbicidal rating ABUTH (ABUTH (Velvetleaf); rate 0.0156 kg/ha) | Preemergence herbicidal rating IPOHE ([1]; rate 0.0156 kg/ha) | Preemergence herbicidal rating IPOHE ([1]; rate 0.0313 kg/ha) | Preemergence herbicidal rating IPOHE ([1]; rate 0.0625 kg/ha) | Preemergence herbicidal rating CASOB (CASOB (Sicklepod) [3]; rate 0.0156 kg/ha) | Preemergence herbicidal rating CASOB (CASOB (Sicklepod) [3]; rate 0.0313 kg/ha) | Preemergence herbicidal rating CASOB (CASOB (Sicklepod) [3]; rate 0.0625 kg/ha) | Preemergence herbicidal rating AMBEL (AMBEL (Ragweed, Common) [9]; rate 0.0156 kg/ha) | Preemergence herbicidal rating AMBEL (AMBEL (Ragweed, Common) [9]; rate 0.0313 kg/ha) | Preemergence herbicidal rating AMBEL (AMBEL (Ragweed, Common) [9]; rate 0.0625 kg/ha) | Preemergence herbicidal rating GLXMAW ([12]; rate 0.0156 kg/ha) | Preemergence herbicidal rating GLXMAW ([12]; rate 0.0313 kg/ha) | Preemergence herbicidal rating GLXMAW ([12]; rate 0.0625 kg/ha) | Preemergence herbicidal rating ORYSAT (ORYSAT (Rice, Tebonnet); rate 0.0156 kg/ha) | Preemergence herbicidal rating ORYSAT (ORYSAT (Rice, Tebonnet); rate 0.0313 kg/ha) | Preemergence herbicidal rating ORYSAT (ORYSAT (Rice, Tebonnet); rate 0.0625 kg/ha) | Preemergence herbicidal rating ORYSAT (ORYSAT (Rice, Tebonnet); rate 0.1250 kg/ha) | Preemergence herbicidal rating ORYSAT (ORYSAT (Rice, Tebonnet); rate 0.2500 kg/ha)
